In US20240091267A1, “PRE-TREATMENT OF MSC WITH PPARB/DELTA AGONIST FOR TREATMENT OF ISCHEMIA-REPERFUSION INJURY” (Universite de Montpellier, priority 2020, published 2024):

Legend:
H9c2 cardiomyocytes = experiment: Transwell co-culture of MSC with H9c2 exposed to H2O2, specific DNA fragmentation in H9c2; type: cell-based, rattus norvegicus; settings: vs naive MSC
Method: FIG. 7: Increased anti-apoptotic effects of PPARβ/δ-primed MSC on cardiomyocytes. (A) After 24 hours of MSC pharmacological preconditioning using PPARβ/δ agonist, cells were co-cultured using transwells (upper chamber) with H9c2 (lower chamber). Both cultures were exposed to 4 hours of 350 μM of H2O2 in minimal medium (serum deprivation). At the end of the protocol, specific DNA fragmentation was quantified in H9c2 cells and values were compared with those obtained for co-cultures with naive MSC or MSC pre-treated with PPARβ/δ antagonists (GSK0660 or GSK03787) and exposed to 350 H2O2μM (B, C, D) Scatter dot plot and bars were presented for specific DNA fragmentation quantified in H9c2 at the end of the protocols. Data (mean±SD for each group of treatment) were normalized by values obtained with naive MSC/H2O2 and compared using Kruskal-Wallis (Dunn's post hoc test). (B): data were obtained using the condition 1 protocol. (C): the condition 2 protocol P was followed and p value was noted **** for p<0.0001 (MSC, n=16 independent cultures vs MSC/H2O2, n=18). For the data obtained with condition 3 protocol (D), p value was noted * for p=0.0436 (MSC+1 μM GSK0660/H2O2, n=6 vs MSC/H2O2, n=10).
H9c2, rattus norvegicus cardiomyocytes, were cultured in Dulbecco's modified Eagle's medium (DMEM), supplemented with 10% fetal bovine serum (FBS), 100 Units/mL penicillin, and 100 μg/mL streptomycin. To induce apoptosis, H9c2 were cultured in a minimal medium (without FBS) containing 350 μM of H2O2 during 4 hours. In order to evaluate the effect of MSCs on cardiomyocytes, a co-culture assay was designed using the transwell system to avoid cell-cell contact. 15,000 cardiomyocytes (lower part) were plated per well of a 12-well dish with or 15,000 MSC (upper part) in presence of 350 OA of H2O2. Two different protocols of co-culture were performed. In protocol 1, H9c2 and co-cultured MSC were exposed to H2O2(with serum deprivation). In protocol 2, H9c2 were exposed to H2O2 in minimal medium during 4 hours and after a wash, cells were co-cultured in complete medium with MSC. In protocol 3, H9c2 were cultured in presence of H2O2 during 4 hours in regular medium deprived in serum, which was continued for an extra 1 hour. Then the co-culture of H9c2 with MSC was performed in complete medium for 1 hour. At the end of all protocols, H9c2 were recovered for apoptosis and RT-qPCR analysis.
DNA fragmentation was quantified in vitro on cell lysates with an enzyme-linked immunosorbent assay kit (Cell Death ELISA; Roche Diagnostics) designed to measure of histone-complexed DNA fragments (mono- and oligonucleosomes) out of the cytoplasm of cells after the induction of apoptosis.
To determine the role of PPARβ/δ on MSC-induced protective effect on cardiomyocytes we designed and developed three protocols in order to mimic the stress received by MSC when transplanted into infarcted tissues. The first protocol consisted in co-culturing naive or primed MSC with H9c2 exposed to 350 μM of H2O2 for 4 hours using transwell. The second protocol consisted in exposing […] μM of H2O2 for 4 hours before to co-culture them with naive or primed MSC in a complete medium. The third protocol consisted in exposing H9c2 to 350 μM of H2O2 for 4 hours followed by serum deprivation for 1 hour before to co-culture them with naive or primed MSC in a complete medium (FIG. 7A).

[1] = tested on: infarcted myocardial tissue; experiment: MSC grafted in infarcted myocardial tissue, fluorescence of Dil-labeled MSC in LV sections; set-up: species or system mouse (C57BL/6J); settings: Dil-labeled MSC pretreated 1 μM vs naive MSC
Method: MSCs were pre-incubated for 24 hours with either PPARβ/δ antagonists GSK3787 (0.1 and 1 μM), PPARβ/δ inverse agonist GSK0660 (0.1 and 1 μM) or PPARβ/δ agonist GW0742 (0.1, 1 and 5 μM) before to be washed with PBS and used in co-cultures experiments or injected in the myocardium. When indicated, MSCs were labeled with the fluorescent cell-tracer CM-Dil (Molecular Probes). MSC were collected and suspended in 5 mL PBS containing CM-Dil (10^7 cells/10 μg) prior to be incubated at 37° C. for 5 minutes followed by 15 minutes at 4° C., in the dark. Labeled MSCs were washed 2 times in PBS, resuspended in PBS and maintained at 4° C. prior to be injected in the myocardium.
At the end of ex vivo experiments, left ventricles (LV) were fixated in formol and embedded in paraffin. Each left ventricle was cut from the apex through the base (4 μm sections each 150 μm). Paraffin-embedded sections were deparaffinised then rehydrated through an alcohol gradient. Sections were mounted in Mowiol (Biovalley). LV Sections were scanned by the Zeiss Axio Scan Z1 slide scanner (Zeiss, Oberkochen, Germany). Scanning was done with the ×20 objective. Images were analyzed using ImageJ.

[2] = tested on: C57B16 mouse hearts subjected to IR injury; experiment: Ex vivo Langendorff ischemia-reperfusion, infarct size (Example 2, naive or pretreated MSC); set-up: species or system mouse (C57BL/6J); settings: MSC 2,500 cells/mL (3.10^5 MSC) pretreated 24 h with GW0742 1 μM; mean±SD
[3] = tested on: isolated perfused hearts from C57B16 mice; experiment: Ex vivo Langendorff ischemia-reperfusion, infarct size, effect of preconditioning duration (Example 3); set-up: species or system mouse (C57BL/6); settings: MSC preconditioned 24 h with 1 μM, 5,000 cells/ml, vs IR
[4] = tested on: TXNIP (Thioredoxin interacting protein); settings: neuronal stress; neonatal hypoxic-ischemic injury in rats; cited from earlier work
[5] = protocol 1: MSC pretreated 24 h with 1 μM, co-cultured with H9c2 under 350 μM H2O2 4 h
[6] = protocol 2: H9c2 exposed to 350 μM H2O2 4 h, then co-culture in complete medium with MSC pretreated with 1 μM
[7] = protocol 3: H9c2 350 μM H2O2 4 h, serum deprivation 1 h, then co-culture in complete medium with MSC pretreated with 1 μM

SMILES	Specific DNA fragmentation in H9c2 (anti-apoptotic effect of MSC) (H9c2 cardiomyocytes; [5])	Specific DNA fragmentation in H9c2 (anti-apoptotic effect of MSC) (H9c2 cardiomyocytes; [6])	Specific DNA fragmentation in H9c2 (anti-apoptotic effect of MSC) (H9c2 cardiomyocytes; [7])	Percentage of fluorescence (MSC grafted in infarcted myocardium) increased by [1] [times]	Infarct size [2]	Decrease in infarct size [3] [%]	TXNIP inhibition [4]	Specific DNA fragmentation in H9c2 (anti-apoptotic effect of MSC) (H9c2 cardiomyocytes; protocol 1: MSC pretreated 24 h with 0.1 μM, co-cultured with H9c2 under 350 μM H2O2 4 h)
COC(=O)c1sccc1S(=O)(=O)Nc1ccc(Nc2ccccc2)cc1OC [GSK0660]	lose their capacity to protect cardiomyocytes from apoptosis	did not change MSC protective properties	lose their capacity to protect cardiomyocytes from apoptosis	–	–	–	–	–
Cc1cc(SCc2sc(-c3ccc(C(F)(F)F)c(F)c3)nc2C)ccc1OCC(=O)O [GW0742]	exhibited a higher anti-apoptotic effect	induced a significant protective effect	induced a significant protective effect	3.5	same cardioprotective effect	54.6	inhibits TXNIP	exhibited a higher anti-apoptotic effect
